Assay results from patent US20110171312A1, “MODIFIED THERAPEUTIC PEPTIDES, METHODS OF THEIR PREPARATION AND USE” (Nektar Therapeutics, priority 2008, published 2011).
Values joined by “and” are separate entries in the source; they are usually repeats but may differ in a detail not shown here. Equal values may be shown once. “Also recorded” adds a separate entry of the source. Read-outs that look alike come from different tables or passages of the source.

Key:
Sprague-Dawley rats [1] = test: Glucose depression after intravenous injection of PEG-insulins (Example 23); type: in vivo, rat; settings: for glucose depression (in vivo activity) in comparison to regular insulin: 20 μg/animal equivalent insulin mass (FIG. 8a)
Description: The API concentration in the stock solutions was determined post-dosing by UV/VIS spectroscopy. All stock solutions were prepared on the study initiation day.
Whole blood (0.5 mL) was collected from the jugular vein catheter and placed into serum separator tubes at pre-dose (2 to 0.25 hours prior to dosing) and post-dose time points. After the sample was collected, an equivalent volume of PBS was administered, the catheter lumen was filled with 100 μL of heparinized PBS, and the cannula hub was plugged with a cotton applicator tip soaked in heparinized saline.
A small amount of whole blood was placed on the glucose test strip for blood glucose determination. The remainder of the sample was separated into serum by centrifugation for 10 minutes at 13,000 rpm. The serum was drawn off into a new Eppendorf tubes. The serum samples were stored at −20° C. on dry ice until shipped, and then stored at −80° C. until analysis.
The test and control insulin-containing articles were dissolved in saline (pH 7.4) and injected as an IV bolus into Sprague-Dawley rats. Prior to administration, the rats were lightly anesthetized for approximately 3-5 minutes in a Plexiglas induction chamber by inhaled 3.0-5.0% isoflurane mixed with air. The femoral vein catheter (FVC) was used for IV drug administration and the jugular vein catheter (JVC) was used for venous blood sampling to ensure no cross-contamination occurred.
A 1 mL syringe was fitted into the cannula, and the heparinized phosphate buffered saline solution present in the catheter lumen was removed by drawing back on the syringe plunger until blood filled the hub of the syringe. The heparinized phosphate buffered saline solution and the syringe were discarded and replaced by a new 1 mL syringe containing the appropriate IV dosing volume. The IV dose was then slowly and completely administered to the animal. The cannula was immediately flushed with 300 μL of phosphate buffered saline after dose administration. Blood was withdrawn from an indwelling catheter over a three-hour period. All drug doses refer to equivalent insulin mass delivered to the animals.
This study was designed to obtain a broad sense of the activity of the compounds rather than serve as an accurate activity measurement.

rats = test: Glucose suppression / pulmonary absorption after intratracheal administration of PEG-insulins (Example 23); type: in vivo, rat; settings: for glucose suppression profile compared to insulin control: 20-80 μg/animal equivalent insulin mass (FIGS. 8b, 9b, 10-12)
Description: In the sections below, an effort is made to compare PEG-insulin preparations with respect to PEG molecular weight, PEGylation site, and chemistry. However, an accurate comparison was not always possible due to the presence of multiple PEG-insulin species in the preparations. Also, it could be that observed differences are due to differences in binding affinity to the receptor rather than absorption per se.
PEGylated insulins were examined that were all derivatized in positions B1 or B29 using the same PEG active agent (SPA). The actual synthetic routes to generate specific B1 or B29 isomers were different. Data for B1-5000-PEG-Insulin, 750-lot 2-PEG-insulin and 2K-lot 2-PEG-Insulin and 750-lot 5-PEG-insulin; their respective glucose suppression curves are shown in FIGS. 10 and 8b.
The results are illustrated in FIG. 11.
The impact of acetylation with PEGylation on insulin absorption through the lungs was evaluated. Acetylated derivatives were produced at different levels of acetylation and were all PEGylated at the same position (B1) with the same MW PEG (750 Da): 750-lot A1- and 750-lot A2-PEG-insulin (details are given in Table 2). The results are illustrated in FIG. 12.

Sprague-Dawley rats [2] = test: Dose determination and PK/PD after intratracheal instillation (Example 25); type: in vivo, rat; settings: for dose adequate to reach the target nadir glucose suppression: intratracheal instillation, dose ranging leg; for Cmin (minimum blood glucose concentration) / Tmin (time to Cmin): intratracheal, 180, 240, 640 μg/animal for 2K, 3K, 5K (Table 6)
Description: A spectrometric measurement of compound concentration was also made.
Intratracheal Instillation (IT) was conducted as follows.
Sample Collection was performed as follows.
The glucose monitoring was conducted as follows.
The experimental protocol was modified for the analysis of the acetylated compounds. This resulted from the intent to use LC/MS-MS for the quantitation of compound concentrations in plasma. This analytical technique requires a larger volume of plasma to permit concentration of the sample and achieve the requisite increase in sensitivity. […] The protocol was therefore modified to increase the number of animals by two-fold and split the samples between these two cohorts.
To explore the data further, the PK profiles after IT doses were deconvoluted using IV PK parameters using the Wagner Nelson deconvolution procedure, to generate the cumulative absorption profile (FIG. 32).

Sprague-Dawley rats [3] = settings: for Cmin (minimum blood glucose concentration) / Tmin (time to Cmin): 15 μg/animal; for dose adequate to reduce blood glucose to the target (40-60 mg/dl): insulin mass
Description: The first phase established a dose of the compound required to achieve a target blood glucose reduction. This target blood glucose reduction was chosen to be the minimum reduction that is clearly recognizable as different from the resting blood glucose concentration.
The second phase examined the pharmacokinetics/pharmacodynamics of the molecule when administered to rats at the selected dose over an observation time sufficient for the glucose to return to baseline.
These experiments were conducted on male adult Sprague-Dawley rats of approximately 0.30-0.40 kg. Animals were obtained pre-cannulated with a jugular vein catheter (JVC) for blood sampling and, in the case of IV administration, and additional femoral vein catheter (FVC).
Intravenous administration of compounds was made via a femoral catheter in a volume of 300 μl.
Sample Collection was performed as follows. Blood samples of approximately 0.50 mL were collected from the JVC using a 1 mL syringe at each time point. A new syringe was used for each time point along with precautions to prevent contamination and carry-over.
The glucose monitoring was conducted as follows. Approximately 20 μL of whole blood was touched to the end of the glucose test strip of 2 Glucometer Elite glucose monitors for a duplicate determination of blood glucose concentrations. If there was a discrepancy of greater than 5 mg/dl, a third reading was taken.
The sample for compound quantitation in plasma, which served as basis for the PK analysis, was collected and processed as follows. The volume of blood remaining after the glucose measurement (˜480 μL) was anticoagulated with K2 EDTA and centrifuged to recover plasma. The plasma was collected and stored at −80° C. until analysis.

Sprague-Dawley rats [4] = tested on: Sprague-Dawley rats
Description: The liquid formulation was prepared in Dulbecco's phosphate buffered saline (DPBS) for IT administration. […] The dose was administered at a fixed volume of 300 μL; as a result, dosing solutions were prepared within 2 hours of administration by dilution of the stock solution.
The lowest dose that met the criteria of achieving nadir blood glucose concentrations between approximately 40 and 60 mg/dL in the first 4 hours after compound administration was chosen for the second leg of the study.
The test system included 19 pre-cannulated (jugular vein catheter (JVC)) adult male fasted (˜15-20 hours) Sprague-Dawley rats (Hilltop Lab Animals, Inc., Scottdale, Pa.). Ten animals weighing between 0.285-0.308 kg were used for the dose-ranging leg and 9 animals weighing between 0.288-0.313 kg were used for the PK/PD leg. Prior to dosing, the rats were lightly anesthetized by inhaled Isoflurane (Abbott Laboratories, Chicago, Ill.). […] Two readings of whole blood glucose concentration (mg/dL) per time point were made using a Glucometer Elite glucose monitor (Bayer Corp., Elkhart, Ind.). […] Pharmacodynamic analysis was performed using Microsoft Office Excel 2003.

beagle dogs = settings: glucose clamp
Description: The glucose clamp technique involved the continuous infusion of a 50% glucose solution at a rate such that normal serum glucose values were maintained throughout the experiment (e.g., normal range is 80-100 mg/dl).
Glucagon was also infused to maintain normal serum physiologic concentrations. […] Blood was withdrawn from an indwelling catheter over a 10-hour period.

[5] = rats, IT, 80 μg/animal, Group 1
[6] = rats, IT, 160 μg/animal, Group 1
[7] = rats, IT, 200 μg/animal, Group 1
[8] = rats, IT, 270 μg/animal, Group 1
[9] = rats, IT, 270 μg/animal, Group 2 (PK/PD leg)
[10] = rats, IT, 381 μg/animal, Group 1
[11] = rats, IT, 381 μg/animal, Group 1, euthanized at 4 hr

N^αB1-{3-[methoxy(ethoxy)750]propionyl}insulin [750-lot 2-PEG-insulin]
glucose depression (in vivo activity) in comparison to regular insulin (Sprague-Dawley rats [1]): smaller glucose depression in comparison to regular insulin
time at which glucose suppression reaches nadir (rats; 80 μg insulin equivalent): 6 h
time of return of glucose to baseline (rats; 80 μg insulin equivalent): ≥ 12 h
glucose suppression profile compared to insulin control (rats): prolonged glucose suppression profile; also recorded: prolonged systemic glucose suppression compared to the insulin control

N^αB1-{3-[methoxy(ethoxy)2K]propionyl}insulin [PEG2000-B1 Insulin]
dose adequate to reach the target nadir glucose suppression (Sprague-Dawley rats [2]): 180 μg/rat
Cmin (minimum blood glucose concentration) (Sprague-Dawley rats [2]): 38 ± 9 mg/dL
Tmin (time to Cmin) (Sprague-Dawley rats [2]): 290 ± 171 min
time up to which blood glucose is still suppressed (not back to baseline) (Sprague-Dawley rats [2]; intratracheal, selected dose): ≥ 9 h
Cmin (minimum blood glucose concentration) (Sprague-Dawley rats [3]; rats, intravenous): 42 ± 13 mg/dL
Tmin (time to Cmin) (Sprague-Dawley rats [3]; rats, intravenous): 33 ± 15 min
Cmin (minimum blood glucose concentration) (Sprague-Dawley rats [3]; rats, intravenous, listed as PEG2000-B1): 42 mg/dL
dose adequate to reduce blood glucose to the target (40-60 mg/dl) (Sprague-Dawley rats [3]; rats, intravenous): 15 μg/rat

N^αA1,N^εB29-{3-[methoxy(ethoxy)750]propionyl}insulin [750-lot 4-PEG-insulin]
reduction of insulin activity (Sprague-Dawley rats [1]; 80 μg insulin/animal (FIG. 9a)): about 50%

N^αA1,N^εB29-{3-[methoxy(ethoxy)2K]propionyl}insulin [2000-PEG-insulin]
glucose depression (in vivo activity) in comparison to regular insulin (Sprague-Dawley rats [1]): deviations were significant

AKZO insulin: reference compound AKZO NOBEL Human Insulin [reference compound]
time by which blood glucose was back to baseline (Sprague-Dawley rats [3]; rats, intravenous (AKZO insulin 1-6 μg/rat; PEG-B1 insulins 15 μg/rat)): ≤ 90 min
Glucose Tmin (Sprague-Dawley rats [3]; rats, intravenous, all doses 1-6 μg/rat): 15 min
dose adequate to reduce blood glucose to the target (40-60 mg/dl) (Sprague-Dawley rats [3]; rats, intravenous): 3 μg/rat

N^αA1,N^εB29-{3-[methoxy(ethoxy)750]propionyl}insulin [750-lot 3-PEG-insulin]
glucose suppression profile compared to insulin control (rats): prolonged systemic glucose suppression compared to the insulin control

di-N^αA1,N^εB29-(acetyl)-B1-{4-[methoxy(ethoxy)2K]butyryl}insulin [PEG2K-Ald-DiAc Insulin]
hypoglycemia (<20 mg/dL blood glucose concentration) (Sprague-Dawley rats [4]; rat, in vivo): caused hypoglycemia
Cmin, individual animals (Sprague-Dawley rats [4]; [5]): 78 mg/dL and 85 mg/dL
Cmin, mean (Sprague-Dawley rats [4]; [5]): 81 mg/dL
Tmin, mean (Sprague-Dawley rats [4]; [5]): 4.50 h
Cmin, individual animals (Sprague-Dawley rats [4]; [6]): 86 mg/dL and 82 mg/dL
Cmin, mean (Sprague-Dawley rats [4]; [6]): 84 mg/dL
Tmin, individual animals (Sprague-Dawley rats [4]; [6]): 6 h
Tmin, mean (Sprague-Dawley rats [4]; [6]): 6.00 h
Cmin, individual animals (Sprague-Dawley rats [4]; [7]): 109 mg/dL and 37 mg/dL
Cmin, mean (Sprague-Dawley rats [4]; [7]): 73 mg/dL
Tmin, mean (Sprague-Dawley rats [4]; [7]): 3.50 h
animals in which target glucose suppression was not achieved (Sprague-Dawley rats [4]; rats, IT, 270 μg, PK/PD leg): three out of nine
Cmin, individual animals (Sprague-Dawley rats [4]; [8]): 31 mg/dL and 35 mg/dL
Cmin, mean (Sprague-Dawley rats [4]; [8]): 33 mg/dL
Tmin, individual animals (Sprague-Dawley rats [4]; [8]): 3 h and 8 h
Tmin, mean (Sprague-Dawley rats [4]; [8]): 5.50 h
Cmin, mean (Sprague-Dawley rats [4]; [9]): 52 mg/dL and 52 ± 29 mg/dL
Tmin, mean (Sprague-Dawley rats [4]; [9]): 5.80 h and 5.8 ± 3.5 h
Cmin, mean (Sprague-Dawley rats [4]; [10]): 20 mg/dL
Tmin, mean (Sprague-Dawley rats [4]; [10]): 4.00 h
Cmin, individual animals (Sprague-Dawley rats [4]; [11]): 20 mg/dL and 19^a mg/dL
Tmin, individual animals (Sprague-Dawley rats [4]; [11]): 4 h
pharmacological effect on mean blood glucose versus saline (historic data) (Sprague-Dawley rats [4]; rats, IT, 200-270 μg/animal): does have a pharmacological effect
dose selected for the PK/PD leg (nadir blood glucose about 40-60 mg/dL) (Sprague-Dawley rats [4]; rats, IT, dose range finding leg): 270 µg

N^εB29-{3-[methoxy(ethoxy)2K]propionyl}insulin [B29 2K-2-PEG-insulin]
infused glucose required to maintain basal levels, versus insulin alone (beagle dogs; powder inhalation): required less infused glucose to maintain basal levels
duration for which glucose infusion was necessary (beagle dogs; powder inhalation (FIG. 13a)): 420 min

N^αB1-{3-[methoxy(ethoxy)3K]propionyl}insulin [PEG3000-B1 Insulin]
dose adequate to reach the target nadir glucose suppression (Sprague-Dawley rats [2]): 240 μg/rat
Cmin (minimum blood glucose concentration) (Sprague-Dawley rats [2]): 45 ± 18 mg/dL
Tmin (time to Cmin) (Sprague-Dawley rats [2]): 170 ± 96 min
time up to which blood glucose is still suppressed (not back to baseline) (Sprague-Dawley rats [2]; intratracheal, selected dose): ≥ 9 h
Cmin (minimum blood glucose concentration) (Sprague-Dawley rats [3]; rats, intravenous): 36 ± 11 mg/dL
Tmin (time to Cmin) (Sprague-Dawley rats [3]; rats, intravenous): 24 ± 12 min
Cmin (minimum blood glucose concentration) (Sprague-Dawley rats [3]; rats, intravenous, listed as PEG3000-B1): 36 mg/dL
dose adequate to reduce blood glucose to the target (40-60 mg/dl) (Sprague-Dawley rats [3]; rats, intravenous): 15 μg/rat

N^εB29-{3-[methoxy(ethoxy)750]proprionyl}insulin [B29 750-lot 5-PEG-insulin]
glucose suppression profile compared to insulin control (rats; listed as B29 750 analog): glucose depression profile similar to the control

N^αA1,N^εB29-{3-[methoxy(ethoxy)550]propionyl}insulin [550-lot 1-PEG-insulin]
glucose suppression profile compared to insulin control (rats): much of the glucose suppression activity of insulin is restored

N^αB1-{3-[methoxy(ethoxy)5K]propionyl}insulin [PEG5000-B1 Insulin]
glucose depression (in vivo activity) in comparison to regular insulin (Sprague-Dawley rats [1]): smaller glucose depression in comparison to regular insulin
time glucose remains below euglycemic levels (rats; 40 μg/animal, no data beyond 6 hours): at least 6 hours
glucose suppression profile compared to insulin control (rats): little systemic glucose suppression compared to the insulin control
dose adequate to reach the target nadir glucose suppression (Sprague-Dawley rats [2]): 640 μg/rat
Cmin (minimum blood glucose concentration) (Sprague-Dawley rats [2]): 37 ± 3 mg/dL
Tmin (time to Cmin) (Sprague-Dawley rats [2]): 480 ± 0 min
time to reach Cmin (Tmin) (Sprague-Dawley rats [2]; intratracheal, selected dose): 8 h
time up to which blood glucose is still suppressed (not back to baseline) (Sprague-Dawley rats [2]; intratracheal, selected dose): ≥ 16 h
time by which plasma concentration falls below the limit of quantitation (Sprague-Dawley rats [3]; rat, in vivo, iv): ≤ 6 h
Cmin (minimum blood glucose concentration) (Sprague-Dawley rats [3]; rats, intravenous): 42 ± 9 mg/dL
Tmin (time to Cmin) (Sprague-Dawley rats [3]; rats, intravenous): 24 ± 8 min
Cmin (minimum blood glucose concentration) (Sprague-Dawley rats [3]; rats, intravenous, listed as PEG5000-B1): 42 mg/dL
dose adequate to reduce blood glucose to the target (40-60 mg/dl) (Sprague-Dawley rats [3]; rats, intravenous): 15 μg/rat
